Article PMC10418395, “Tetracyclic 1,4-Naphthoquinone Thioglucoside Conjugate U-556 Blocks the Purinergic P2X7 Receptor in Macrophages and Exhibits Anti-Inflammatory Activity In Vivo” (International Journal of Molecular Sciences, 2023)

Columns and labels:
P2X7 receptor (mP2X7R) [1] = biological target: T1, P2X7 receptor (mP2X7R) (Mus musculus, UniProt Q9Z1M0); test: ATP/BzATP-induced YO-PRO-1 uptake and Ca2+ influx in RAW […] cells; assay type: cell-based
T1 construct: gene P2rx7
T1 sequence (Q9Z1M0 1-595): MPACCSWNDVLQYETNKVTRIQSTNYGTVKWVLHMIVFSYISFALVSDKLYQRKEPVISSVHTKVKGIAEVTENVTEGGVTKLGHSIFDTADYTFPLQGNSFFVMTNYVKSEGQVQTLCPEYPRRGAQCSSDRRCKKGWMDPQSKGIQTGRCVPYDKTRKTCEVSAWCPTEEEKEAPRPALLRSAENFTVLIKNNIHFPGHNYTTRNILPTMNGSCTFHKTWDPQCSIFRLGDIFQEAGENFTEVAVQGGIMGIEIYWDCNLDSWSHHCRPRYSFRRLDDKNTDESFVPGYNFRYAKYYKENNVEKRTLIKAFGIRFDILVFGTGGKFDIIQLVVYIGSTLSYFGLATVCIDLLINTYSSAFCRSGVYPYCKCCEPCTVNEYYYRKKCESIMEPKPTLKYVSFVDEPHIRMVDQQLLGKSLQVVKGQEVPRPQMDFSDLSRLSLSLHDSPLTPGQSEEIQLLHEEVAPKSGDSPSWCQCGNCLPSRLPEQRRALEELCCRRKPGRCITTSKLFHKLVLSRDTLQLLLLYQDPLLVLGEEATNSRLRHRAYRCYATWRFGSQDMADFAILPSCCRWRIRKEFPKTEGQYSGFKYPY

P2X7 receptor (hP2X7) = biological target: T2, P2X7 receptor (hP2X7) (Homo sapiens, UniProt Q99572); test: SPR (Biacore […], CM5 chip, Langmuir […]); assay type: binding
T2 construct: gene P2RX7
T2 sequence (Q99572 47-334): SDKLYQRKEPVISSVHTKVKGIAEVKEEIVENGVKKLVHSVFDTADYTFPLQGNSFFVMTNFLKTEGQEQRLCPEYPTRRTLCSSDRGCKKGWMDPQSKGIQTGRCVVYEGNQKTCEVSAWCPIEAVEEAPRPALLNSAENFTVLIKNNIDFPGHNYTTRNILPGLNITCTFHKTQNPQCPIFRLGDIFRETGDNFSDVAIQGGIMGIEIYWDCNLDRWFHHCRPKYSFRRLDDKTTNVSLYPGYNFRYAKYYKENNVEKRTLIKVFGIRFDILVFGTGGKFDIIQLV

P2X7 receptor (mP2X7R) [2] = biological target: T1, P2X7 receptor (mP2X7R); test: BzATP/ATP-induced YO-PRO-1 uptake and Ca2+ influx in RAW […] cells; assay type: cell-based

Kd (P2X7 receptor (hP2X7)) [µM] | inhibition at 0.1 µM (P2X7 receptor (mP2X7R) [2]) [%] | Structure (SMILES) | inhibition at 10 µM (P2X7 receptor (mP2X7R) [1]) [%]
– | – | Clc1cccc(-c2nnnn2Cc2cccnc2)c1Cl [A438079] | 48.3
13 | 52.7 | Cc1c(C)c(O)c2c(c1O)C(=O)C1=C(S[C@@H]3O[C@H](CO)[C@@H](O)[C@H](O)[C@H]3O1)C2=O [compound 4] | –
